# Measurements from patent US20230129359A1, “MUSCARINIC RECEPTOR 4 ANTAGONISTS AND METHODS OF USE” (Neurocrine Biosciences, Inc., priority 2020, published 2023).
# Target: T1, human M4 receptor (Homo sapiens, UniProt P08173)
# T1 construct: expressed in transfected cells; host or cells: CHO cells
# T1 sequence (P08173 1-479): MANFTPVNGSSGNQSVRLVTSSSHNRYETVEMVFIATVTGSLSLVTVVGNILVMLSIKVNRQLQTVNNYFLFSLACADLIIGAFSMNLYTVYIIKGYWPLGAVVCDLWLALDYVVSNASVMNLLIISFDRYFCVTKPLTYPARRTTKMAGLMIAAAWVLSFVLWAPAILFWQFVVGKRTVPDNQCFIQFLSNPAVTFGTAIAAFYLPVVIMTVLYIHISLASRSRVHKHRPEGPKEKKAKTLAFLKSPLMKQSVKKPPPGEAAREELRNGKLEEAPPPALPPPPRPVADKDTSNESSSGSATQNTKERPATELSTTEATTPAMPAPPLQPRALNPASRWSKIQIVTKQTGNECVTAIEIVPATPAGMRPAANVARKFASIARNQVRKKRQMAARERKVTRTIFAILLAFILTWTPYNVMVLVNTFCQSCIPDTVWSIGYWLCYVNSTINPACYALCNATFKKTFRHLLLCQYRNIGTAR
# Assay: Radioligand ([3H]N-methylscopolamine) binding assay, membranes from CHO cells expressing human M4 receptor
# Settings: Ki against human M4 receptor; membranes from CHO cells; tritiated N-methylscopolamine 1.5 nM; read-out: K
# Method in brief: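 Competition binding used CHO-cell membranes expressing human M4 with 1.5 nM [3H]N-methylscopolamine and twelve compound concentrations ([…]). Incubation was 90 minutes at 37 °C in 50 mM HEPES, 100 mM NaCl, 5 mM MgCl2, 1 mM EDTA, pH 7.4. Bound ligand was collected by filtration onto PEI-treated glass fibre for Ki.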
row,SMILES,Ki
1,"C[C@@H]1CN(c2cnc3cc(C(F)(F)F)ccc3n2)[C@@H](C)CN1C(=O)NC1CC2(C1)CN(Cc1ccccc1)C2 [Compound 237, (2R,5S)-N-{2-benzyl-2-azaspiro[3.3]heptan-6-yl}-2,5-dimethyl-4-[6-(trifluoromethyl)quinoxalin-2-yl]piperazine-1-carboxamide]",< 10 nM
2,"C[C@@H]1CN(c2cnc(C(F)(F)F)cn2)C[C@H](C)N1C(=O)NC1CC2(C1)CN(Cc1ccc(F)cc1)C2 [Compound 267, (2R,6S)-N-{2-[(4-fluorophenyl)methyl]-2-azaspiro[3.3]heptan-6-yl}-2,6-dimethyl-4-[5-(trifluoromethyl)pyrazin-2-yl]piperazine-1-carboxamide]",10 to 100 nM
3,"C[C@@H]1CN(c2ncc(C(F)(F)F)cn2)C[C@@H](C)N1C(=O)NC1CC2(C1)CN(Cc1ccccc1)C2 [Compound 65, (2R,6R)-N-{2-benzyl-2-azaspiro[3.3]heptan-6-yl}-2,6-dimethyl-4-[5-(trifluoromethyl)pyrimidin-2-yl]piperazine-1-carboxamide]",< 10 nM
4,"C[C@@H]1CN(c2cnc(C(F)(F)F)cn2)C[C@@H](C)N1C(=O)NC1CC2(C1)CN(Cc1ccccc1)C2 [Compound 64, (2R,6R)-N-{2-benzyl-2-azaspiro[3.3]heptan-6-yl}-2,6-dimethyl-4-[5-(trifluoromethyl)pyrazin-2-yl]piperazine-1-carboxamide]",100 to 1000 nM
5,"C[C@@H]1CN(c2cnc(C(F)(F)F)cn2)[C@@H](C)CN1C(=O)NC1CC2(C1)CN(Cc1ccc(F)cc1)C2 [Compound 269, (2R,5S)-N-{2-[(4-fluorophenyl)methyl]-2-azaspiro[3.3]heptan-6-yl}-2,5-dimethyl-4-[5-(trifluoromethyl)pyrazin-2-yl]piperazine-1-carboxamide]",10 to 100 nM
6,"O=C(OC1CC2(C1)CN(Cc1ccccc1)C2)N1C2COCC1CN(c1ncc(C(F)(F)F)cn1)C2 [Compound 167, 2-benzyl-2-azaspiro[3.3]heptan-6-yl 7-[5-(trifluoromethyl)pyrimidin-2-yl]-3-oxa-7,9-diazabicyclo[3.3.1]nonane-9-carboxylate]",10 to 100 nM
7,"COc1ccc(CN2CC3(CC(NC(=O)N4[C@H](C)CN(c5ncc(C(F)(F)F)cn5)C[C@@H]4C)C3)C2)cn1 [Compound 305, (2R,6S)-N-{2-[(6-methoxypyridin-3-yl)methyl]-2-azaspiro[3.3]heptan-6-yl}-2,6-dimethyl-4-[5-(trifluoromethyl)pyrimidin-2-yl]piperazine-1-carboxamide]",10 to 100 nM
8,"C[C@@H]1CN(c2cc(F)c(F)c(F)c2)CCN1C(=O)NC1CC2(C1)CN(Cc1ccccc1)C2 [Compound 44, (2R)-N-{2-benzyl-2-azaspiro[3.3]heptan-6-yl}-2-methyl-4-(3,4,5-trifluorophenyl)piperazine-1-carboxamide]",10 to 100 nM
9,"C[C@@H]1CN(c2cnc3ccccc3n2)[C@@H](C)CN1C(=O)OC1CC2(C1)CN(Cc1ccccc1)C2 [Compound 187, 2-benzyl-2-azaspiro[3.3]heptan-6-yl (2R,5S)-2,5-dimethyl-4-(quinoxalin-2-yl)piperazine-1-carboxylate]",< 10 nM
10,"C[C@@H]1CN(c2ncccc2C(F)(F)F)C[C@@H](C)N1C(=O)OC1CC2(C1)CN(Cc1ccccc1)C2 [Compound 190, 2-benzyl-2-azaspiro[3.3]heptan-6-yl (2R,6R)-2,6-dimethyl-4-[3-(trifluoromethyl)pyridin-2-yl)piperazine-1-carboxylate]",100 to 1000 nM
11,"C[C@@H]1CN(c2ncc(C(F)(F)F)cn2)C[C@@H](C)N1C(=O)OC1CC2(C1)CN(CCC(C)(C)C)C2 [Compound 145, 2-(3,3-dimethylbutyl)-2-azaspiro[3.3]heptan-6-yl (2R,6R)-2,6-dimethyl-4-[5-(trifluoromethyl)pyrimidin-2-yl]piperazine-1-carboxylate]",100 to 1000 nM
12,"N#Cc1cc(C(F)(F)F)ccc1N1CCN(C(=O)OC2CC3(C2)CN(Cc2ccccc2)C3)CC1 [Compound 126, 2-benzyl-2-azaspiro[3.3]heptan-6-yl 4-[2-cyano-4-(trifluoromethyl)phenyl]pipera-zine-1-carboxylate]",100 to 1000 nM
13,"C[C@@H]1CN(c2nc3ccc(C(F)(F)F)cc3s2)CCN1C(=O)NC1CC2(C1)CN(Cc1ccccc1)C2 [Compound 225, (2R)-N-{2-bnezyl-2-azaspiro[3.3]heptan-6-yl}-2-methyl-4-[6-(trifluoromethyl)-1,3-benzothiazol-2-yl]piperazine-1-carboxamide]",< 10 nM

# More lines, now with the values ahead:
row,Ki,SMILES
1,100 to 1000 nM,"C[C@@H]1CN(c2ncc(C(F)(F)F)cn2)C[C@H](C)N1C(=O)OC1(C)CC2(CN(Cc3ccccc3)C2)C1 [Compound 352, 2-benzyl-6-methyl-2-azaspiro[3.3]heptan-6-yl (2R,6S)-2,6-dimethyl-4-[5-(trifluoromethyl)pyrimidin-2-yl]piperazine-1-carboxylate]"
2,10 to 100 nM,"C[C@@H]1CN(c2ncc(C(F)(F)F)cn2)C[C@H](C)N1C(=O)OC1(C(F)F)CC2(CN(Cc3ccccc3)C2)C1 [Compound 341, 2-benzyl-6-(difluoromethyl)-2-azaspiro[3.3]heptan-6-yl (2R,6S)-2,6-dimethyl-4-[5-(trifluoromethyl)pyrimidin-2-yl]piperazine-1-carboxylate]"
3,< 10 nM,"C[C@@H]1CN(c2nc3ccc(F)cc3s2)[C@@H](C)CN1C(=O)OC1CC2(C1)CN(Cc1ccccc1)C2 [Compound 370, 2-benzyl-2-azaspiro[3.3]heptan-6-yl (2R,5S)-4-(6-fluoro-1,3-benzothiazol-2-yl)-2,5-dimethylpiperazine-1-carboxylate]"
4,< 10 nM,"C[C@@H]1CN(c2ncc(C(F)(F)F)cn2)[C@@H](C)CN1C(=O)OC1(C)CC2(CN(Cc3ccccc3)C2)C1 [Compound 358, 2-benzyl-6-methyl-2-azaspiro[3.3]heptan-6-yl (2R,5S)-2,5-dimethyl-4-[5-(trifluoromethyl)pyrimidin-2-yl]piperazine-1-carboxylate]"
5,10 to 100 nM,"C[C@@H]1CN(c2nc3ccc(F)cc3o2)C[C@@H](C)N1C(=O)OC1CC2(C1)CN(Cc1ccccc1)C2 [Compound 445, 2-benzyl-2-azaspiro[3.3]heptan-6-yl (2R,6R)-4-(6-fluoro-1,3-benzoxazol-2-yl)-2,6-dimethylpiperazine-1-carboxylate]"
6,10 to 100 nM,"C[C@@H]1CN(c2nc3ccc(C(F)(F)F)cc3o2)C[C@@H](C)N1C(=O)OC1CC2(C1)CN(Cc1ccccc1)C2 [Compound 429, 2-benzyl-2-azaspiro[3.3]heptan-6-yl (2R,6R)-2,6-dimethyl-4-[6-(trifluoromethyl)-1,3-benzoxazol-2-yl]piperazine-1-carboxylate]"
7,< 10 nM,"CC(c1ccccc1)N1CC2(CC(NC(=O)N3[C@H](C)CN(c4ncc(C(F)(F)F)cn4)C[C@@H]3C)C2)C1 (stereo partly drawn) [Compound 334, (2R,6S)-2,6-dimethyl-N-[2-(1-phenylethyl)-2-azaspiro[3.3]heptan-6-yl]-4-[5-(trifluoromethyl)pyrimidin-2-yl]piperazine-1-carboxamide]"
8,< 10 nM,"C[C@@H]1CN(c2nc3cc(F)c(F)cc3s2)C[C@H](C)N1C(=O)OC1CC2(C1)CN(Cc1ccccc1)C2 [Compound 447, 2-benzyl-2-azaspiro[3.3]heptan-6-yl (2R,6S)-4-(5,6-difluoro-1,3-benzothiazol-2-yl)-2,6-dimethylpiperazine-1-carboxylate]"
